Data reported in US20260242416A1, “ANTIMICROBIAL PEPTIDES” (priority 2023, published 2026).
Entries after “also recorded” stand apart in the source; their conditions may differ. Where a SMILES comes first, the peptide text is derived from it.

Columns and labels:
[1] = system: Escherichia coli ATCC 25922; experiment: Antimicrobial susceptibility testing (MIC/MBC), Example 1; assay type: cell-based; settings: Table 3; footnote: wild-type Escherichia coli ATCC 29522; minimum of three independent experiments
Procedure: Twenty-one putative AMP sequences identified using the rAMPage pipeline were validated through a minimum of three AST experiments performed independently on separate days. In these tests, the AMP activity was assessed using two metrics: minimum inhibitory concentration and minimum bactericidal concentration (MIC and MBC, respectively). MIC and MBC values were determined using procedures outlined by the Clinical and Laboratory Standards Institute (CLSI), with the recommended adaptations for the testing of cationic AMPs described previously. “Wild-type” strains of Escherichia coli (E. coli 25922) and Staphylococcus aureus (S. aureus 29213) were purchased from the American Type Culture Collection (ATCC; Manassas, VA, USA) and were used for screening of antimicrobial activity. Briefly, putative AMPs were synthesized by Genscript (Piscataway, NJ, USA) and received in lyophilized format. These peptides were suspended using ultrapure water (Life Technologies, Grand Island, NY, USA; Invitrogen cat #10977-015), and an 11 μL two-fold serial dilution of 1280 to 2.5 μg/mL was prepared in duplicate rows in a 96-well microtiter plate, before being combined with 100 μL standardized bacterial inoculum yielding a final duplicate testing range of 128 to 0.25 μg/mL. The bacterial inoculum was prepared using colonies isolated on non-selective agar and combined with Mueller Hinton Broth. This suspension was measured and adjusted to achieve an optical density of 0.08-0.1, equivalent to a 0.5 McFarland standard (1-2×10^8 cfu/mL). The inoculum was then diluted to a target concentration of 5±3×10^5 cfu/mL; total viable counts from the final inoculum were routinely performed to confirm the target bacterial density was achieved. […] The MIC and adjacent wells were plated onto non-selective agar; the concentration in which killed 99.9% of the inoculum following additional overnight incubation was determined to be the MBC.

[2] = system: E. coli ATCC 25922, Salmonella Enteritidis, S. aureus ATCC 29213; experiment: Broth microdilution, panel result (at least one / all strains), Example 2; assay type: cell-based; set-up: key to inhibitory activity (asterisk): *Indicates inhibitory activity; settings: for inhibitory activity (asterisk): Table 14, against at least one of E. coli ATCC 25922, Salmonella Enteritidis, S. aureus ATCC 29213
How it was run: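 CLSI broth microdilution adapted for cationic peptides, in MHB with a final inoculum of 2-8×10^5 cfu/mL in polypropylene plates. Peptides were serially diluted from 128 down to 0.5 μg/mL and incubated 20-24 h at 37° C. MIC is the lowest concentration with no visible growth.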

[3] = alamarBlue cell viability assay (cytotoxicity); assay type: cell-based, human; settings: human, HEK293 cells, at 128 μg/mL
Procedure: (§1) The human embryonic kidney cell line HEK293 and the corresponding growth media and supplements were purchased from the ATCC. The cells were maintained in Eagle's Minimum Essential Medium (EMEM) supplemented with 10% fetal bovine serum (FBS) and 1% Penicillin-Streptomycin solution and grown in a 5% CO2 incubator at 37° C. […] Cells were incubated overnight to allow them to adhere. […] TX-100 was diluted to 2% in UltraPure deionized water and added as a positive control. Complete growth medium was added to the peptides and TX-100 containing wells. Spent growth medium of wells with adhered cells was replaced with the contents of wells containing serially diluted peptides or TX-100. Cells were incubated for four hours at 37° C. in 5% CO2 incubator. Growth medium containing peptides or TX-100 was replaced with fresh growth medium containing 10% (v/v) alamarBlue (Bio-Rad Laboratories, Hercules, CA, USA) and incubated for 20 h. Fluorescence was measured at excitation of 540 nm and emission of 590 nm in a Cytation 5 plate reader (Agilent BioTek, Winooski, VT, USA) and results recorded and analyzed with Gen5 software (Agilent BioTek, Winooski, VT, USA). The average fluorescence reads of TX-100 and growth media only wells were used to calculate 0% and 100% cell viability, respectively. The percentage of viable cells at each peptide concentration was determined by Formula 1: […]

HEK293 cells = experiment: alamarBlue cell viability assay (cytotoxicity); assay type: cell-based, human; settings: concentrations up to 128 μg/mL
Procedure: as §1

E. coli ATCC 25922 = assay type: cell-based, Escherichia coli; settings: ATCC 25922
How it was run: (§2)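 MIC taken as lowest peptide level showing no visible growth after 20-24 h at 37° C. Twofold series 128-0.5 μg/mL in Mueller-Hinton broth, polypropylene plates, final inoculum 2-8×10^5 cfu/mL, per CLSI with cationic-peptide adaptations.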

[4] = system: Salmonella enterica serovar Enteritidis (human clinical isolate); assay type: cell-based; settings: serovar Enteritidis (human clinical isolate)
How it was run: as §2

S. aureus ATCC 29213 = assay type: cell-based, Staphylococcus aureus; settings: ATCC 29213
How it was run: as §2

SMILES | MIC* (μg/mL) E. coli [1] [µg⁻¹ mL⁻¹] | inhibitory activity (asterisk) [2] | viability at 4 h, 128 µg/mL [3] [%] | cytotoxicity (HEK293 cells) | MIC (ug/mL) E. coli (E. coli ATCC 25922) [µg/mL] | spectrum of antimicrobial activity ([2]; panel of E. coli, Salmonella Enteritidis, S. aureus, up to 128 μg/mL) | MIC (ug/mL) S. Enteritidis [4] [µg/mL] | MIC (ug/mL) S. aureus (S. aureus ATCC 29213) [µg/mL]
CC[C@H](C)[C@H](NC(=O)CN)C(=O)N[C@@H](CC(C)C)C(=O)N[C@@H](CC(=O)O)C(=O)N[C@H](C(=O)N[C@@H](CC(C)C)C(=O)N[C@@H](CCCCN)C(=O)N[C@@H](CCC(N)=O)C(=O)N[C@@H](CC(C)C)C(=O)NCC(=O)N[C@@H](CCCCN)C(=O)N[C@@H](C)C(=O)N[C@@H](C)C(=O)N[C@H](C(=O)N[C@@H](CCC(N)=O)C(=O)NCC(=O)N[C@@H](CC(C)C)C(=O)N[C@@H](CC(C)C)C(=O)N[C@@H](CO)C(=O)N[C@@H](CCCCN)C(=O)N[C@@H](C)C(=O)N[C@@H](C)C(=O)N[C@@H](CS)C(=O)N[C@@H](CCCCN)C(=O)N[C@@H](CC(C)C)C(=O)N[C@@H](C)C(=O)N[C@@H](CCCCN)C(=O)N[C@H](C(=O)N[C@@H](CS)C(=O)O)[C@@H](C)O)C(C)C)[C@@H](C)O [AmMa1] (H-GILDTLKQLGKAAVQGLLSKAACKLAKTC-OH; N-terminus and C-terminus assumed) | 2 to 4 | 12.* GILDTLKQLGKAAVQGLLSKAACKLAKTC | – | – | – | – | – | –
CC[C@H](C)[C@H](NC(=O)[C@H](CCCCN)NC(=O)[C@H](CS)NC(=O)[C@H](CCCCN)NC(=O)[C@H](CC(C)C)NC(=O)[C@H](CC(N)=O)NC(=O)[C@H](Cc1ccc(O)cc1)NC(=O)[C@H](CC(C)C)NC(=O)[C@H](CC(C)C)NC(=O)[C@@H](NC(=O)[C@@H](NC(=O)[C@H](C)NC(=O)[C@@H](NC(=O)[C@H](CC(N)=O)NC(=O)[C@H](CCCCN)NC(=O)[C@H](C)NC(=O)[C@@H](NC(=O)[C@H](CC(N)=O)NC(=O)[C@H](CCCCN)NC(=O)[C@H](C)NC(=O)[C@@H](NC(=O)[C@H](CC(=O)O)NC(=O)[C@H](CCSC)NC(=O)[C@H](Cc1ccccc1)NC(=O)CN)[C@@H](C)O)C(C)C)C(C)C)C(C)C)[C@@H](C)O)C(=O)N[C@H](C(=O)N[C@@H](CCCCN)C(=O)N[C@@H](C)C(=O)N[C@@H](CS)C(=O)O)[C@@H](C)O [OdMa12] (H-GFMDTAKNVAKNVAVTLLYNLKCKITKAC-OH; N-terminus and C-terminus assumed) | 4 | 69.* GFMDTAKNVAKNVAVTLLYNLKCKITKAC | – | – | – | – | – | –
CC[C@H](C)[C@H](NC(=O)[C@H](CCCCN)NC(=O)CNC(=O)[C@H](CC(C)C)NC(=O)[C@H](CC(C)C)NC(=O)CN)C(=O)N[C@@H](CC(C)C)C(=O)NCC(=O)N[C@H](C(=O)NCC(=O)N[C@@H](CCCCN)C(=O)N[C@@H](CCCCN)C(=O)N[C@H](C(=O)N[C@@H](CC(C)C)C(=O)N[C@@H](CS)C(=O)NCC(=O)N[C@H](C(=O)N[C@@H](CO)C(=O)NCC(=O)N[C@@H](CC(C)C)C(=O)N[C@@H](CS)C(=O)O)C(C)C)C(C)C)C(C)C [PeNi9] (H-GLLGKILGVGKKVLCGVSGLC-OH; N-terminus and C-terminus assumed) | – | 32.* GLLGKILGVGKKVLCGVSGLC | 0 | low or no cytotoxicity at lower concentrations; also recorded: high levels of cytotoxicity at concentrations higher than their MICs | 2 to 4 | active against all three bacteria | 8 to 16 | 4 to 8
CC[C@H](C)[C@H](NC(=O)CNC(=O)[C@H](C)NC(=O)[C@@H](NC(=O)[C@H](CC(N)=O)NC(=O)[C@H](CCCCN)NC(=O)[C@H](C)NC(=O)[C@H](C)NC(=O)CNC(=O)[C@H](CCCCN)NC(=O)[C@@H](NC(=O)[C@@H](NC(=O)[C@H](CC(=O)O)NC(=O)[C@H](CC(C)C)NC(=O)[C@H](CC(C)C)NC(=O)[C@H](CC(C)C)NC(=O)CN)[C@@H](C)O)C(C)C)C(C)C)C(=O)N[C@@H](CC(C)C)C(=O)N[C@@H](CC(C)C)C(=O)N[C@@H](CC(N)=O)C(=O)N[C@@H](CCCCN)C(=O)N[C@@H](CC(C)C)C(=O)N[C@@H](CCCCN)C(=O)N[C@@H](CS)C(=O)N[C@@H](CCCCN)C(=O)N[C@H](C(=O)N[C@H](C(=O)NCC(=O)N[C@@H](CC(=O)O)C(=O)N[C@@H](CS)C(=O)O)[C@@H](C)O)C(C)C [PeNi10] (H-GLLLDTVKGAAKNVAGILLNKLKCKVTGDC-OH; N-terminus and C-terminus assumed) | 8 | 1086.* GLLLDTVKGAAKNVAGILLNKLKCKVTGDC | – | – | – | – | – | –
CC[C@H](C)[C@H](NC(=O)CN)C(=O)N[C@@H](CC(C)C)C(=O)N[C@H](C(=O)N[C@@H](CC(=O)O)C(=O)N[C@H](C(=O)N[C@@H](CC(C)C)C(=O)N[C@@H](CCCCN)C(=O)NCC(=O)N[C@@H](C)C(=O)N[C@@H](C)C(=O)N[C@@H](CCCCN)C(=O)N[C@@H](CC(N)=O)C(=O)N[C@H](C(=O)N[C@@H](C)C(=O)NCC(=O)N[C@H](C(=O)N[C@@H](CC(C)C)C(=O)N[C@@H](CC(C)C)C(=O)N[C@@H](CC(=O)O)C(=O)N[C@@H](CCCCN)C(=O)N[C@@H](CC(C)C)C(=O)N[C@@H](CCCCN)C(=O)N[C@@H](CS)C(=O)N[C@@H](CCCCN)C(=O)N[C@H](C(=O)N[C@H](C(=O)NCC(=O)NCC(=O)N[C@@H](CS)C(=O)O)[C@@H](C)O)[C@@H](C)CC)C(C)C)C(C)C)[C@@H](C)O)[C@@H](C)O [PeNi11] (H-GILTDTLKGAAKNVAGVLLDKLKCKITGGC-OH; N-terminus and C-terminus assumed) | 8 to 16 | 1087.* GILTDTLKGAAKNVAGVLLDKLKCKITGGC | – | – | – | – | – | –
CC[C@H](C)[C@H](NC(=O)[C@H](CCCCN)NC(=O)[C@H](CC(=O)O)NC(=O)[C@H](CC(C)C)NC(=O)[C@@H](NC(=O)CNC(=O)[C@@H](NC(=O)[C@H](CO)NC(=O)[C@H](Cc1ccccc1)NC(=O)[C@H](CC(N)=O)NC(=O)[C@H](CCCCN)NC(=O)[C@@H](NC(=O)CNC(=O)[C@H](CCC(=O)O)NC(=O)[C@H](CCCCN)NC(=O)[C@@H](NC(=O)[C@@H](NC(=O)[C@@H](NC(=O)[C@H](Cc1c[nH]c2ccccc12)NC(=O)[C@H](CC(C)C)NC(=O)CN)[C@@H](C)O)[C@@H](C)O)[C@@H](C)CC)C(C)C)C(C)C)C(C)C)C(=O)N[C@@H](CCCNC(=N)N)C(=O)N[C@@H](CS)C(=O)N[C@@H](CCCCN)C(=O)N[C@H](C(=O)N[C@H](C(=O)NCC(=O)NCC(=O)N[C@@H](CS)C(=O)O)[C@@H](C)O)[C@@H](C)CC [PeNi14] (H-GLWTTIKEGVKNFSVGVLDKIRCKITGGC-OH; N-terminus and C-terminus assumed) | 4 to 8 | 15.* GLWTTIKEGVKNFSVGVLDKIRCKITGGC | – | – | – | – | – | –
